# Patent US20190142800A1, “SYNERGISTIC ANTIFUNGAL COMPOSITIONS AND METHODS THEREOF” (VYOME THERAPEUTICS LIMITED, priority 2016, published 2019)
# Tested on: Trichophyton rubrum (ATCC-28188)
# Experiment: Checkerboard assay of fatty acid/ester with antifungals on Trichophyton rubrum (ATCC 28188)
# Type: cell-based
# Set-up: key to FIC index: FIC index = sum of FICs; FIC = agent conc in well / agent MIC
# Conditions: for Agent MIC: agent alone; for MIC: Trichophyton rubrum, ATCC28188, agent alone
# Procedure: The synergy is measured by determining the fractional inhibitory concentration (FIC) value of the combination. This experimental set up, called checkerboard method, allows measurement of a desired effect (inhibition of fungal growth in this case) at different combinations of various concentrations of the two agents (antifungal agent and fatty acid/ester). […] No agent is added to the penultimate column on the right and the bottom row. The final column on the right is used for growth control (only inoculum in broth) and sterility control (broth alone, no inoculum). […] FIC value for each agent in a particular well of the checkerboard layout was calculated by dividing the agent concentration in that well by the established MIC value of the agent against the test organism (Hsieh et al., Synergy assessed by checkerboard: A critical Analysis, Diagn. Microbiol. Infect Dis. (1993) 16:343-349). FIC values for both agents in a particular well were calculated in this way followed by determination of the FIC index (sum of the FICs of each drug in the concerned well). […] Agents Chemother. (2010) 54(2): 602-609].
# Using the checkerboard layout experimental setup described above (FIG. 1A), various medium-chain fatty acids were tested for their ability to potentiate the activity of a known antifungal agent. Concentrations above and below the MIC of each test agent were tested using serial dilution. The same procedure was expanded to test combinations of various medium-chain fatty acids C-1 to C-14 (such caprylic acid, undecylenic acid and lauric acid) and esters thereof, with antifungal agents from various classes including azoles, allylamines, benzylamines, zinc pyrithione and piroctone olamine against both susceptible and resistant Trichophyton spp. (filamentous fungus) and Candida spp. (yeast).
# Potentiation of the activity of antimycotic agents using ester derivatives of medium chain fatty acids was tested in a standard, well accepted in vitro assay system to check for synergy. This experimental set up, called checkerboard method, allows measurement of a desired effect (inhibition of fungal growth in this case) at different combinations of various concentrations of two agents. A chosen medium chain fatty acid (C-1 to C-14) or its ester derivative was tested for its ability to potentiate the activity of a known antifungal agent (various classes) using the checkerboard layout. Various concentrations above and below the MIC of each test agent were tested using serial dilution in Sabouraud dextrose broth. […] FIC value for a drug in a particular well of the checkerboard layout is calculated by dividing the drug concentration in that well by the established MIC value of the drug against the test organism (Hsieh et al., Synergy assessed by checkerboard: A critical Analysis, Diagn. Microbiol. Infect Dis. (1993) 16:343-349). FIC values for both test agents in a particular well are calculated in this way followed by determination of the FIC index (sum of the FICs of each drug in the concerned well).
# [1] = Table 2, propylene glycol monocaprylate series
# [2] = Table 4, undecylenic acid (C11) series
# [3] = Table 6, propylene glycol monolaurate series
# [4] = agent's MIC in combination antifungal + propylene glycol monocaprylate (partner: other agent of same combination no.)
# [5] = agent's MIC in combination antifungal + propylene glycol monolaurate (partner: other agent of same combination no.)
# [6] = agent's MIC in combination antifungal + undecylenic acid (partner: other agent of same combination no.)
# [7] = antifungal in combination with lauric acid
# [8] = antifungal in combination with propylene glycol monocaprylate
# [9] = antifungal in combination with propylene glycol monolaurate
# [10] = antifungal in combination with undecylenic acid
# [11] = combination antifungal + propylene glycol monocaprylate
# [12] = combination antifungal + propylene glycol monolaurate
# [13] = combination antifungal + undecylenic acid
# [14] = Table 3, glyceryl monocaprylate series
# [15] = agent's MIC in combination antifungal + caprylic acid (partner: other agent of same combination no.)
# [16] = agent's MIC in combination antifungal + glyceryl monocaprylate (partner: other agent of same combination no.)
# [17] = antifungal in combination with caprylic acid
# [18] = antifungal in combination with glyceryl monocaprylate
# [19] = combination antifungal + caprylic acid
# [20] = combination antifungal + glyceryl monocaprylate
Compound,Agent MIC [1],Combination MIC [4],Combination MIC [5],Combination MIC [6],FIC index [8],Interaction [8],FIC index [9],Interaction [9],FIC index [10],Interaction [10],FIC [11],FIC [12],Combination MIC [15],Combination MIC [16],FIC index [17],Interaction [17],FIC index [18],Interaction [18],FIC [19],FIC [20],further results
C[C@@H]1[C@H](O)[C@@H](C)/C=C/C=C/C=C/C=C/C=C/C=C/C=C/[C@H](O[C@@H]2O[C@H](C)[C@@H](O)[C@H](N)[C@@H]2O)C[C@@H]2O[C@](O)(C[C@@H](O)C[C@@H](O)[C@H](O)CC[C@@H](O)C[C@@H](O)CC(=O)O[C@H]1C)C[C@H](O)[C@H]2C(=O)O [Amphotericin B],0.5 µg/mL,0.125 µg/mL,0.125 µg/mL,0.06 µg/mL,0.5,Synergistic (Combinations that gave FIC indices less than 1 were designated “synergistic”),0.5,Synergistic (Combinations that gave FIC indices less than 1 were designated “synergistic”),0.62,Synergistic (Combinations that gave FIC indices less than 1 were designated “synergistic”),0.25,0.25,–,–,–,–,–,–,–,–,"Agent MIC [2]: 0.5 µg/mL; Agent MIC (Table 5, lauric acid (C12) series): 0.5 µg/mL; Agent MIC [3]: 0.5 µg/mL; Combination MIC (agent's MIC in combination antifungal + lauric acid (partner: other agent of same combination no.)): 0.125 µg/mL; FIC index [7]: 0.75; Interaction [7]: Synergistic (Combinations that gave FIC indices less than 1 were designated “synergistic”); FIC (combination antifungal + lauric acid): 0.25; FIC [13]: 0.12"
CC[C@H](C)C[C@H](C)CCCCCCCCC(=O)N[C@H]1C[C@@H](O)[C@@H](NCCN)NC(=O)[C@@H]2[C@@H](O)CCN2C(=O)[C@H]([C@H](O)CCN)NC(=O)[C@H]([C@H](O)[C@@H](O)c2ccc(O)cc2)NC(=O)[C@@H]2C[C@@H](O)CN2C(=O)[C@H]([C@@H](C)O)NC1=O [Caspofungin],–,0.125 µg/mL,0.125 µg/mL,16 µg/mL,0.252,Synergistic (Combinations that gave FIC indices less than 1 were designated “synergistic”),0.502,Synergistic (Combinations that gave FIC indices less than 1 were designated “synergistic”),0.5,Synergistic (Combinations that gave FIC indices less than 1 were designated “synergistic”),0.002,0.002,16 µg/mL,2 µg/mL,0.75,Synergistic (Combinations that gave FIC indices less than 1 were designated “synergistic”),0.531,Synergistic (Combinations that gave FIC indices less than 1 were designated “synergistic”),0.25,0.031,"MIC (Table 1, caprylic acid series): 64 µg/mL; MIC [1]: 64 µg/mL; MIC [14]: 64 µg/mL; MIC [2]: 64 µg/mL; MIC [3]: 64 µg/mL; FIC [13]: 0.25"
Cc1cc(C2CCCCC2)n(O)c(=O)c1 [Ciclopirox],–,0.06 µg/mL,–,–,0.503,Synergistic (Combinations that gave FIC indices less than 1 were designated “synergistic”),–,–,–,–,0.03,–,0.5 µg/mL,0.03 µg/mL,0.75,Synergistic (Combinations that gave FIC indices less than 1 were designated “synergistic”),0.501,Synergistic (Combinations that gave FIC indices less than 1 were designated “synergistic”),0.25,0.015,"MIC (Table 1, caprylic acid series): 2 µg/mL; MIC [1]: 2 µg/mL; MIC [14]: 2 µg/mL"
Cc1cc(CC(C)CC(C)(C)C)n(O)c(=O)c1.NCCO (stereo not shown) [Piroctone olamine],2.5 µg/mL,–,–,–,–,Synergistic (Combinations that gave FIC indices less than 1 were designated “synergistic”),–,–,–,–,–,–,2 µg/mL,2 µg/mL,0.75,Synergistic (Combinations that gave FIC indices less than 1 were designated “synergistic”),0.562,Synergistic (Combinations that gave FIC indices less than 1 were designated “synergistic”),0.5,0.5,"Agent MIC (Table 1, caprylic acid series): 4 µg/mL; Agent MIC [14]: 4 µg/mL"
Zinc pyrithione,3.125 µg/mL,–,–,–,0.75,Synergistic (Combinations that gave FIC indices less than 1 were designated “synergistic”),–,–,–,–,–,–,0.195 µg/mL,0.195 µg/mL,0.19,Synergistic (Combinations that gave FIC indices less than 1 were designated “synergistic”),0.3125,Synergistic (Combinations that gave FIC indices less than 1 were designated “synergistic”),0.06,0.0625,"Agent MIC (Table 1, caprylic acid series): 3.125 µg/mL; Agent MIC [14]: 3.125 µg/mL"
